Here are results for 1 compound from article PMC9394284, “Discovery of Novel Dual Adenosine A2A and A1 Receptor Antagonists with 1H-Pyrazolo[3,4-d]pyrimidin-6-amine Core Scaffold as Anti-Parkinson’s Disease Agents” (Pharmaceuticals, 2022).

In one series the target is T1, A2B receptors (Homo sapiens, UniProt P29275).
T1 construct: purchased PerkinElmer ES-013-M
T1 sequence (P29275 1-332): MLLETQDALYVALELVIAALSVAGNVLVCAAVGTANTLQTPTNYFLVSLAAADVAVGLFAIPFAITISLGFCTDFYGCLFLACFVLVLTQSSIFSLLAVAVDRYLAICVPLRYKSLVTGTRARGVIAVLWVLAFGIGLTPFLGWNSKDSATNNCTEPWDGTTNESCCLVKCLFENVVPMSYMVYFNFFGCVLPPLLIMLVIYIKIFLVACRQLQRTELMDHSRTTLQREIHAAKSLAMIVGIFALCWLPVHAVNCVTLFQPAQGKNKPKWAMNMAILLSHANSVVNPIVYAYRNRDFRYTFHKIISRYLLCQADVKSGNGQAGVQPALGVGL
Nature of the series: radioligand binding to human A2B receptors, HEK-293 membranes, [3H]MRS1754. On the procedure:
The radioligand-binding assays for adenosine receptors were performed at Eurofins Discovery Services (Panlabs, Taiwan). Briefly, stock solutions of the compounds were prepared in DMSO and further diluted with the incubation buffer to the desired concentration. Final DMSO concentrations in the assay were 1.0%. For adenosine A1 screening, a 10 μg aliquots of membrane preparations from human recombinant CHO-K1 cells stably expressing A1 receptors (CHO-K1-hA1AR clone3, EPDST, R200510) were incubated with 1 nM [^3H]DPCPX in incubation buffer (20 mM HEPES, pH 7.4, 10 mM MgCl2, 100 mM NaCl 1.40 nM) for 90 min at 25 °C. Nonspecific binding was estimated in the presence of 100 μM R(-)-PIA. Membranes were filtered and washed 3 times and the filters were counted to determine specifically bound [^3H]DPCPX. Chemical compounds were screened at 10 μM. For A2A screening, membrane preparations from human recombinant HEK-293 cells stably expressing A2A receptors (PerkinElmer, RBHA2AM) were incubated with 0.05 μM [^3H]CGS-21680 in incubation buffer (50 mM Tris-HCl, pH 7.4, 10 mM MgCl2, 1 mM EDTA, 2 U/mL Adenosine Deaminase) for 90 min at 25 °C. Nonspecific binding was estimated in the presence of 50.0 μM NECA. Membranes were filtered and washed 3 times and the filters were counted to determine [^3H]CGS-21680 specifically bound. […] Membranes were filtered and washed 3 times and the filters were counted to determine [^3H]MRS1754 specifically bound. […]
IC50 values were determined by a nonlinear, least-squares regression analysis using MathIQ^TM (ID Business Solutions Ltd., Guildford, UK). Where inhibition constants (Ki) were presented, the Ki values were calculated using Cheng and Prusoff equation [18] using the observed IC50 of the compound, the concentration of radioligand employed in the assay, and the historical values for the KD of the ligand (obtained experimentally at Eurofins Panlabs, Inc.). The Hill coefficient (nH), which defines the slope of the competitive binding curve, was calculated using MathIQ^TM.

The nature of series [1]: metabolic stability in cryopreserved dog hepatocytes. The note with it: dog hepatocytes; 1 μM 11o; little/no compound depletion. On the procedure:
Metabolic stability of 11o was determined in cryopreserved hepatocytes from mice, rats, dogs, monkeys and human according to the SOPs of Frontage Laboratories Inc. Briefly, cryopreserved hepatocytes for pre-clinical animals and for human (BioIVT, Westbury, NY, USA) were thawed in a 37 °C water bath with gentle shaking until ice had almost melted. The suspensions were immediately transferred to a centrifuge tube (50 mL) containing pre-warmed thawing media at 37 °C with gentle handshaking to prevent the cells from settling. Cell suspensions were centrifuged at 50× g and 4 °C for 5 min. The supernatant was discarded and the pellets were resuspended in prewarmed incubation media (5 mL) at 37 °C. The percentage of viable cells in the suspension was determined by Trypan blue staining method to ensure viability of ≥70 %. […] The samples were centrifuged and aliquots of the supernatant were analyzed for parent compounds by LC/MS/MS using suitable multiple reaction monitoring (MRM) transitions. […] The disappearance of 11o and midazolam was monitored by LC/MS/MS (MRM) analysis of the hepatocyte extracts at each time point. The peak area ratio of the analyte to internal standard was obtained for each sample and the rate of disappearance of 11o was assessed by comparing the peak area ratios at various time points to the peak area ratio obtained at t = 0. The t1/2 is obtained (using the linear portion of semi-log plot of the area ratio vs. time) and the CLint values determined using well-stirred model.

The next series has as its target T2, hERG (Homo sapiens, UniProt Q12809).
T2 construct: host or cells: HEK cells stably expressing hERG
The experiment in a line: hERG manual patch clamp in hERG-expressing HEK cells. The format is cell-based. The settings on record: read-out: hERG inhibition IC50. On the procedure: hERG (human-ether-a-go-go) liability was investigated in an hERG-expressing HEK cell line using the manual patch clamp method to assess the potential cardiotoxicity of 11o.
hERG ion channel-blocking profile of acute exposure to 11o was performed in stably expressing HEK cells at Nova Research Laboratories (New Orleans, LA, USA). Briefly, cloned equivalent of the human IKr, hERG, was used. Cells were obtained from Cytogentrics Bioscience GmbH (Jachim-Jungius-Strafe 9, 18,059 Rostock, Germany). Internal and external recording solutions as well as data acquisition and analysis were as previously described.

Where [2] appears, read: average of duplicate experiments.

T2 sequence (Q12809 whole entry): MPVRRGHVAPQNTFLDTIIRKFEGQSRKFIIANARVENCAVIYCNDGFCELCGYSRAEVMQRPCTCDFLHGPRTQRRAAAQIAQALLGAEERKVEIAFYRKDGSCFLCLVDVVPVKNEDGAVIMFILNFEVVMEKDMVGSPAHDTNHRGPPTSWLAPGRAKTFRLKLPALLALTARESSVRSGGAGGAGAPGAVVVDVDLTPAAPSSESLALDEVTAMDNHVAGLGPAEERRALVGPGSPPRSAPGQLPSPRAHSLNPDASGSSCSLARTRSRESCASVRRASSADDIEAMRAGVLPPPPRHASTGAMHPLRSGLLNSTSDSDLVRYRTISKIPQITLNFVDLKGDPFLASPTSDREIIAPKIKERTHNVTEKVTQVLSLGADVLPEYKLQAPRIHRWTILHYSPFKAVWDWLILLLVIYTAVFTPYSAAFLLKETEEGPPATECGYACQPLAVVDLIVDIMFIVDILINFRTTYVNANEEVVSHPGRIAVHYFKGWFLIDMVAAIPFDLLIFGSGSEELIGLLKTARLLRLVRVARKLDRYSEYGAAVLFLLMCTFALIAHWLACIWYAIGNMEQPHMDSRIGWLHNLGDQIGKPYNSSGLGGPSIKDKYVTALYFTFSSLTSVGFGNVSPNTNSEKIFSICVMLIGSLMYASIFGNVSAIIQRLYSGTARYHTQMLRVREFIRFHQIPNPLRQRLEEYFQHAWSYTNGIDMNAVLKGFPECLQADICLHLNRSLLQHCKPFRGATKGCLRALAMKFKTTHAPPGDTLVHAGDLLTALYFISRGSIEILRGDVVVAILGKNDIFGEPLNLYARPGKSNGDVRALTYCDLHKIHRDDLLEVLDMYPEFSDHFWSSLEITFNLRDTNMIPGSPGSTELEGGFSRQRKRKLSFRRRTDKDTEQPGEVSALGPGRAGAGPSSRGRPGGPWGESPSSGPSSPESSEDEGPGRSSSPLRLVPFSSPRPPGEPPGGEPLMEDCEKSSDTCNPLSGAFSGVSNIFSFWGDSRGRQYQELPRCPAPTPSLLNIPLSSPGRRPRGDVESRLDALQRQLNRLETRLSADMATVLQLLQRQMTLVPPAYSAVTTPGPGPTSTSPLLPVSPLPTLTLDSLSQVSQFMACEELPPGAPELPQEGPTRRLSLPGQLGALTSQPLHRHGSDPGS

Regarding `Cc1cc(Cn2ncc3c(-c4cccc(C#N)c4F)nc(N)nc32)ccc1N` [11o, 3-(6-Amino-1-(4-amino-3-methylbenzyl)-1H-pyrazolo[3,4-d]pyrimidin-4-yl)-2-fluorobenzonitrile], on A2B receptors, the “nH (Hill coefficient), A2B” value is reported as 0.98. For the same compound, the IC50 at A2B receptors (setting [2]) amounted to 1220 nM; at hERG, 116000 nM. The same compound showed a Ki at A2B receptors (setting [2]) of 400 nM. Moreover, the “stability in dog hepatocytes (in words)” value in series [1] was “stable in dog hepatocytes”.

Usually IC50 stands for the concentration that inhibits the measured activity by half. As a reminder, the Ki is the dissociation constant of the complex between target and ligand, obtained from inhibition or displacement. A high value points to a looser hold on the target.
